Measurements: US20190271885A1, “OPTICAL FILM AND METHOD FOR PRODUCING THE SAME, POLARIZING PLATE, AND IMAGE DISPLAY DEVICE” (FUJIFILM Corporation, priority 2016, published 2019)

Assay: Evaluation of wet heat resistance of optical film (change of in-plane retardation Re)
Format: physicochemical
Details: HB(C6F5)4 used instead of the additive B-1 of Example 1
Description: The optical film manufactured in each of Examples and Comparative Examples was left to stand in an environment at a temperature of 65° C. and a humidity of 90% for 500 hours, and the in-plane retardation Re of the optical film before being left to stand in a wet heat environment (initial Re1) and the in-plane retardation Re of the optical film after being left to stand in a wet heat environment (Re1 after standing) were compared to each other to calculate a Re change rate 1.
Furthermore, the Re change rate 1 is calculated by the following equation.
Re change rate 1(%)={(Initial Re1−Re1 after standing)/Initial Re1}×100
Furthermore, a comparative optical film was manufactured without use of an additive of each of Examples and Comparative Examples, and according to the same procedure as above, the in-plane retardation Re of the comparative optical film before being left to stand in a wet heat environment (initial Re2) and the in-plane retardation Re of the comparative optical film after being left to stand in a wet heat environment (Re2 after standing) were compared to each other to calculate a Re change rate 2.
Furthermore, the Re change rate 2 is calculated by the following equation. […]
A difference between the Re change rate 2 and the Re change rate 1 (Re change rate 2-Re change rate 1) was evaluated according to the following standard. […]

Fc1c(F)c(F)c([B-](c2c(F)c(F)c(F)c(F)c2F)(c2c(F)c(F)c(F)c(F)c2F)c2c(F)c(F)c(F)c(F)c2F)c(F)c1F.[H+] [HB(C6F5)4]
Wet heat resistance (in words): the same extent of effects as in Example 1
